Measurements from patent publication US12257306B2, “Antiviral prodrugs and nanoformulations thereof” (Board of Regents of the University of Nebraska, priority 2018, dated 2025).

Experiments:
HIV-1 = details: plasma, cited from earlier work; for 4×PA-IC90: four times protein-adjusted 90% inhibitory concentration
HIV-1ADA = experiment: Antiretroviral efficacy of prodrugs by HIV reverse transcriptase (RT) activity in MDM; type: cell-based; details: MDM treated 8 hours, 0.01-1000 nM, challenged with HIV-1ADA MOI 0.01; FIG. 2A
Protocol: The DTG prodrugs M3DTG and M4DTG were studied. First, antiretroviral efficacy was determined by measurement of HIV reverse transcriptase (RT) activity. To assess antiretroviral efficacy, monocyte-derived macrophage (MDM) were treated with either M3DTG or M4DTG for 8 hours over a range of concentrations (0.01-1000 nM). Drug was dosed in 0.1% (v/v) DMSO in media. After treatment, cells were washed with PBS to remove excess of free drug and nanoparticles and the cells were cultured with fresh media, with half-media exchanges every other day. The MDM were challenged with HIV-1ADA at a MOI of 0.01 infectious viral particles/cell for up to 30 days. Progeny virion production was measured by RT activity in culture medium (Kalter, et al. (1992) J. Clin. Microbiol., 30(4):993-995).

Row | SMILES | 4×PA-IC90 (HIV-1) [µg/mL] | PA-IC90 (HIV-1; protein-adjusted 90% inhibitory concentration) [µg/mL] | antiretroviral activity (HIV-1 RT activity) (HIV-1ADA)
1 | C[C@H]1CO[C@@H]2Cn3cc(C(=O)NCc4ccc(F)cc4F)c(=O)c(O)c3C(=O)N12 [CAB, cabotegravir] | 0.66 | – | –
2 | C[C@@H]1CCO[C@H]2Cn3cc(C(=O)NCc4ccc(F)cc4F)c(=O)c(O)c3C(=O)N12 [DTG, dolutegravir] | 0.256 | 0.064 | –
3 | C[C@@H]1CCO[C@H]2Cn3cc(C(=O)NCc4ccc(F)cc4F)c(=O)c(OC(=O)CCCCCCCC(=O)Oc4c5n(cc(C(=O)NCc6ccc(F)cc6F)c4=O)C[C@@H]4OCC[C@@H](C)N4C5=O)c3C(=O)N12 [M3DTG] | – | – | significant antiretroviral activity
